Measured values as given in BindingDB's records for doi:10.7270/Q24B305P (D3R/Abbott, 2015).
pKi: −log10 of the molar value.

These molecules were tested against T1, Urokinase-type plasminogen activator [179-424,C299A,N323Q] (Human, UniProt P00749, C299A/N323Q) (assay: Photometric_Method1).
T1 construct: 179-424

Compound	pKi
CCOc1cc(OCC)c(OCC)cc1/C=C/c1cc(Br)c2cc(C(=N)N)ccc2c1 [uPa_38]	6.11
COC(=O)Nc1cc(C(=O)Nc2ccc(CN)cc2)cc2ccc(C(=N)N)cc12 [uPa_17]	9.05
COC(=O)Nc1ccc2nc(C(=N)N)ccc2c1 [uPa_27]	< 4.30
N=C(N)c1ccc2cc(C(=O)Nc3ccccc3)cc(-c3ncccn3)c2c1 [uPa_21]	5.11
N=C(N)NC(=O)c1ccc(Cl)c(S(N)(=O)=O)c1 [uPa_45]	< 4.00
N#CC(CCOc1cccc2ccc(N)nc12)(c1ccccc1)c1ccccc1 [uPa_16]	< 4.40
N=C(N)c1ccc2ccccc2c1 [Naphthalene-2-carboxamidine]	5.23
Nc1cnc2ccccc2n1 [uPa_1]	< 4.30
CC(C)C1=NCCc2ccc(NC(=O)c3cc(Br)c4cc(C(=N)N)ccc4c3)cc21 [uPa_26]	7.80
COc1ccc2ccc(C(=N)N)cc2c1-c1cnn(C(C)C)c1 [uPa_11]	5.35
COc1cc2ccc(C(=N)N)cc2c(OC)c1OC [uPa_2]	5.10
Nc1ccc2nc(N)ccc2c1 [uPa_23]	< 3.98
Nc1cc2ccccc2cn1	< 4.52
COC(=O)Nc1cc(C(=O)Nc2ccccc2)cc2ccc(C(=N)N)cc12 [uPa_36]	7.74
CN(CC#N)C(=O)c1ccc2ccc(N)nc2c1 [uPa_35]	< 4.00
CC(C)CN(CC(C)C)C(=O)c1ccc2ccc(N)nc2c1 [uPa_34]	< 4.00
N=C(N)c1ccc2cc(/C=C/CCc3cccnc3)cc(Br)c2c1 [uPa_32]	5.51
C#CCN(C)C(=O)c1ccc2ccc(N)nc2c1 [uPa_33]	< 4.00
C=CCNC(=O)Nc1cccc2ccc(N)nc12 [uPa_30]	< 5.00
CS(=O)(=O)n1cc(-c2cc(C(=O)Nc3ccccc3)cc3ccc(C(=N)N)cc23)cn1 [uPa_20]	6.11
COC(=O)Nc1ccc2nc(N)ccc2c1 [uPa_24]	< 4.30
CS(=O)(=O)Nc1cc(CCc2ccccc2)cc2ccc(C(=N)N)cc12 [uPa_37]	5.83
N=C(N)NC(=O)c1nc(Cl)c(NCc2cc(Cl)cc(Cl)c2)nc1N [uPa_22]	5.45

Continued, values first:

pKi	Compound
7.18	N=C(N)c1ccc2cc(C(=O)Nc3ccc4c(c3)C(C3CCCCC3)=NCC4)ccc2c1 [uPa_31]
5.06	N=C(N)c1ccc2cc(NS(=O)(=O)c3ccccc3)ccc2c1 [uPa_14]
6.54	N=C(N)c1ccc2cc(C(=O)Nc3ccc4c(c3)C(c3ccccc3)=NCC4)ccc2c1 [uPa_29]
6.18	N=C(N)c1ccc2cc(C#Cc3cccc(OC4CCCC4)c3)ccc2c1 [uPa_25]
7.48	COc1cc(NC(=O)c2ccc3cc(C(=N)N)ccc3c2)cc(OC(C)C)c1 [uPa_28]
5.14	CC(C)Oc1ccc2cc(C(=N)N)ccc2c1 [uPa_5]
5.90	CN1CCc2ccc(C3CC3c3ccc4cc(C(=N)N)ccc4c3)cc2C1c1cccnc1 (stereo not given) [uPa_44]
7.38	CN1CCc2ccc(C3CC3c3ccc4cc(C(=N)N)ccc4c3)cc2C1C1CCC1 (stereo not given) [uPa_41]
8.05	CC(C)C1c2cc(C3CC3c3cc(/C=C/C4CC4)c4cc(C(=N)N)ccc4c3)ccc2CCN1C (stereo not given) [uPa_43]
7.68	COC/C=C/c1cc(C2CC2c2ccc3c(c2)C(C(C)C)N(C)CC3)cc2ccc(C(=N)N)cc12 (stereo not given) [uPa_39]
6.65	CN1CCc2ccc(/C=C/c3ccc4cc(C(=N)N)ccc4c3)cc2C1C1CCCCC1 (stereo not given) [uPa_40]
7.03	COc1cc(C2CC2c2ccc3c(c2)C(C(C)C)N(C)CC3)cc2ccc(C(=N)N)cc12 (stereo not given) [uPa_42]
